{"source": "patent US6087121A", "about": "“Chemiluminescent detection of heme proteins in biological samples” (Mayo Foundation for Medical Education and Research, priority 1999, dated 2000)", "key": {"[1]": {"biological_target": "T1, MPO (Homo sapiens, UniProt P05164)", "T1 sequence (P05164 49-745)": "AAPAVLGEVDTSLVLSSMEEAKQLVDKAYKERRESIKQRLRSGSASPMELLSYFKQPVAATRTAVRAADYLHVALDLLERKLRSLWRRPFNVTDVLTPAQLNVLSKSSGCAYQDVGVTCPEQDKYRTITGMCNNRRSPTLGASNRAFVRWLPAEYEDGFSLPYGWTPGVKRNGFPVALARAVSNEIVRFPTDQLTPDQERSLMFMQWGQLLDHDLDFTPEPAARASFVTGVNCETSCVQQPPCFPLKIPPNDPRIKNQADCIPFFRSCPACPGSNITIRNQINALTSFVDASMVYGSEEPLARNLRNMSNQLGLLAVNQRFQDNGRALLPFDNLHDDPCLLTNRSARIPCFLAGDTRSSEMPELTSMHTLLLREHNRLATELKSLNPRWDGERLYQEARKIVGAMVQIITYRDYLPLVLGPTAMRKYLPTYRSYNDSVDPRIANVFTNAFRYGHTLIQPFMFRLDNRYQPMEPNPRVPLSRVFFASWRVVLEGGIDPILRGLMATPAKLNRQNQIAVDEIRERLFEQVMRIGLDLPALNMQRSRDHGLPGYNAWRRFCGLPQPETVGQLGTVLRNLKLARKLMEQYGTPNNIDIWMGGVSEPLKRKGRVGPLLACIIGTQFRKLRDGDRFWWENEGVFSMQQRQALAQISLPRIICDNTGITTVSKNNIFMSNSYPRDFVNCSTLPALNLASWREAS", "experiment": "Drug interferences with MPO (PS-1 assay in urine)", "type": "biochemical", "details": "for inhibition at 0.001 µg/mL: 1 ng/mL", "protocol": "(§1) Urine samples were diluted 1:4 into distilled water to minimize inhibitory effects observed with hyperosmolal urines. Two μL of diluted urine were added to 12×75 mm polystyrene test tube containing 50 μL of the PS-1 solution. The tubes were incubated at 37° C. for 5 minutes. MPO activity was determined by chemiluminescence emission using a Turner TD-20e luminometer maintained at 37° C. Leukocyte counting was performed manually by using a hemacytometer chamber (Kova Glasstic slide, Hycor, Irvine, Calif.) on each urine sample to determine the number of cells/mL.\nSeveral possible interfering substances were added to urine and tested for inhibitory effects. Several common medications were also tested for potential inhibitory effects."}, "[2]": {"tested_on": "Hb", "experiment": "S/N ratios of different chemiluminescent substrates with Hb", "type": "biochemical, human", "details": "signal integrated over first five seconds", "protocol": "(§2) Centricon ultrafiltration filters were obtained from Amicon (Daven, Mass.). Polystyrene tubes (5.0 mL volume, 75×12 mm) used for the assay were manufactured by Sarstedt (Arlington Heights, Ill.). The chemiluminescent substrate, 7-dimethylamino-naphthalene-1,2-dicarbonic acid-hydrazide (7-DNH) was purchased from Boehringer Mannheim (Indianapolis, Ind.). PS-1 acridan substrate (solution A and solution B) was obtained from Lumigen Inc. (Southfield, Mich.). […] Tween-20 and Sodium Chloride were purchased from Fisher Scientific (Fair Lawn, N.J.). General laboratory chemicals such as, boric acid, sodium acetate, Trizma base, HEPES, hydrogen peroxide (H2 O2) solution (30.0%), human hemoglobin, catalase, 6-amino-2,3-dihydro-1,4-phthallazinedione (4-aminophthalhydrazide), N-(4-Aminobutyl)-N-ethyl-isoluminol, Triton X-100, (3-[3-cholamidopropyl)dimethylammonio]-1-propanesulfonate) (CHAPS), hydrogen disulfite, methimazole, ofloxacin, ascorbic acid, ammonium chloride, EDTA, Hb, bilirubin, and lactoperoxidase (LPO) were purchased from Sigma Chemical Company (St. Louis, Mo.). Human heart myoglobin and myeloperoxidase were obtained from Calbiochem (La Jolla, Calif.) Thyroid peroxidase (TPO) was purchased from O.E.M. Concepts, Inc. (Toms River, N.J.). Eosinophil peroxidase was provided by Dr. Greipp (Mayo Clinic). Fresh EDTA anticoagulated blood was collected from donors showing no signs of sickness and washed with physiological saline to isolate RBC.\n(§3) Fresh urine specimens were obtained in routine commercial collection vessels. The specimens were, either, analyzed immediately or stored at 4° C. until analysis. The urine samples were prepared for analysis by adding CTAC to produce a 0.1% solution, unless otherwise noted, in order to lyse the erythrocytes, thereby releasing hemoglobin. The assays were performed in a 75×12 mm polystyrene tube. The assay solutions were prepared by adding to each tube 294 μL of high ionic strength buffer, 5.0 μL of the prepared urine samples or standards, and […] of substrate (0.4 mM solution of 7-DNH), unless otherwise noted. […] The standard curve was obtained by plotting chemiluminescence emission in Relative Light Units (RLU) versus Hb concentration (μg/mL) or number of RBCs (#RBC/high power field (hpf)). Cell counts were determined with the Yellow Iris® instrument and confirmed by a manual hemocytometer count.\n(§4) The substrate (7-DNH) and the ultrafiltered urine were prepared as described above. The kinetics of chemiluminescence was determined by monitoring the chemiluminescence signal over a 20 second time period following addition of the substrate (7-DNH) to ultrafiltered urine. Measurements were performed either in the presence or absence of Hb. Experiments performed in the absence of Hb provide background measurements in relative light units (RLU)."}, "[3]": {"tested_on": "Mb", "experiment": "S/N ratios of different chemiluminescent substrates with Mb", "type": "biochemical, human", "details": "signal integrated over first five seconds", "protocol": "as §2, §3\nas §4, with “Experiments performed in the absence of Hb provide background measurements in relative light units (RLU).” left out"}, "[4]": {"tested_on": "Hb", "experiment": "Interference studies in Hb assay (7-DNH chemiluminescence)", "type": "biochemical, human", "details": "for Level of Interference (in words): highest conc: ascorbic acid 10, bilirubin 10, Cu++/Mn++ 40, sodium azide 500 μg/mL, uric acid 1 mg/mL; for Level of Interference: level producing a signal equivalent to 3 RBC per high power field, fixed Hb concentration", "protocol": "Numerous potential interfering substances, which either enhance or quench the signal generated by cyclic hydrazides, were evaluated. The effects of these potentially interfering substances on light emission was investigated at varying concentrations of the interfering composition. Assays were performed using serial dilutions of the potential interfering compositions in ultrafiltered urine at a fixed concentration of Hb. Comparisons of chemiluminescence emission were made between a reference solution (Hb in ultrafiltered urine) without added interfering compositions and solutions with added interferant.\nGenerally, the value of 3 RBC per high power field is the normal cutoff point.\nBilirubin and uric acid were examined as a possible negative interfering compositions because of their chemical structure which may quench energy emitted."}, "[5]": {"biological_target": "T1, MPO", "experiment": "Effects of potential interfering substances in WBC (MPO, PS-1) assay", "type": "biochemical", "details": "highest tested: uric acid 1 mg/mL, ascorbic acid 100 μg/mL, bilirubin 50 μg/mL, trolox 1 mg/mL", "protocol": "as §1\nSeveral possible interfering substances were added to urine and tested for inhibitory effects. Several common medications were also tested for potential inhibitory effects. […] Hb at concentrations of >10 μg/mL and Mb at concentrations >2 μg/mL were detected by the PS-1 substrate as the chemiluminescence emission was above the normal urine background. Samples grossly populated with bacteria caused slight inhibition of the MPO activity. Urine samples may contain many epithelial cells, casts, crystals, and numerous artifacts but none of these appear to interfere with the chemiluminescence emission from MPO."}, "[6]": {"tested_on": "Hb", "experiment": "Effects of detergents on chemiluminescence emission in Hb assay", "type": "biochemical, human", "protocol": "Increasing concentrations of Hb were assayed with equal concentrations of different detergents to assess the effectiveness of the detergents at enhancing chemiluminescence emission. The effectiveness of the detergents was also compared at different time periods and varying concentrations. The ultrafiltered urine was assumed to contain neither Hb nor Mb and was used as the blank to assess background chemiluminescence emission with the substrate."}}, "note": "“Also recorded” adds a separate entry of the source. Like-named read-outs stand apart in the source and are kept apart here.", "data": [{"compound": "Cn1c(=O)c2[nH]cnc2n(C)c1=O", "note": "[Theophyllin]", "values": [{"measurement": "% Inhibition of MPO", "setting": "[1]; 100 μg/mL", "value": 11, "unit": "%"}]}, {"compound": "Nc1ccc2c(=O)[nH][nH]c(=O)c2c1", "note": "[Isoluminol, 6-amino-2,3-dihydro-1,4-phthallazinedione]", "values": [{"measurement": "S/N for Hb", "setting": "[2]", "value": 3}, {"measurement": "S/N for Mb", "setting": "[3]", "value": 5}]}, {"compound": "CCN(CCCCN)c1ccc2c(=O)[nH][nH]c(=O)c2c1", "note": "[ABEI, N-(4-Aminobutyl)-N-ethyl-isoluminol]", "values": [{"measurement": "S/N for Hb", "setting": "[2]", "value": 3}, {"measurement": "S/N for Mb", "setting": "[3]", "value": 6}]}, {"compound": "C[C@]12C=CC(=O)C=C1CC[C@@H]1[C@@H]2[C@@H](O)C[C@@]2(C)[C@H]1CC[C@]2(O)C(=O)CO", "note": "[Prednisolone]", "values": [{"measurement": "inhibition at 100 µg/mL", "setting": "[1]; read-out: % Inhibition of MPO", "value": 13, "unit": "%"}]}, {"compound": "CC(C(=O)O)c1cccc(C(=O)c2ccccc2)c1", "note": "(stereo not shown) [Ketoprofyn]", "values": [{"measurement": "inhibition at 100 mg/day", "setting": "[1]; read-out: % Inhibition of MPO", "value": 10, "unit": "%"}]}, {"compound": "Eosinophil peroxidase: Eosinophil peroxidase was provided by Dr. Greipp (Mayo Clinic)", "values": [{"measurement": "Level of Interference (in words)", "setting": "[4]", "value": "only interfere at very high concentrations"}, {"measurement": "Level of Interference", "setting": "[4]", "value": "> 0.007", "unit": "µg/mL"}]}, {"compound": "O=C1O[C@H]([C@@H](O)CO)C(O)=C1O", "note": "[Ascorbic Acid, ascorbic acid]", "values": [{"measurement": "Level of Interference (in words)", "setting": "[4]", "value": "None"}, {"measurement": "Level of Interference (in words)", "setting": "[4]; listed as ascorbic acid", "value": "did not interfere; also recorded: did not have an inhibitory effect on the reaction"}, {"measurement": "Interference (in words)", "setting": "[5]", "value": "None"}, {"measurement": "Interference (in words)", "setting": "[5]; listed as ascorbic acid", "value": "did not affect assay performance"}]}, {"compound": "Cn1c(=O)c2[nH]cnc2n(C)c1=O", "note": "[Aminophyllin]", "values": [{"measurement": "% Inhibition of MPO", "setting": "[1]; 100 μg/mL", "value": 4, "unit": "%"}]}, {"compound": "COc1ccc2cc([C@H](C)C(=O)O)ccc2c1", "note": "[Naprosyn]", "values": [{"measurement": "inhibition at 800 mg/day", "setting": "[1]; read-out: % Inhibition of MPO", "value": 5, "unit": "%"}]}, {"compound": "Nc1cccc2c(=O)[nH][nH]c(=O)c12", "note": "[Luminol]", "values": [{"measurement": "S/N for Hb", "setting": "[2]", "value": 89}, {"measurement": "S/N for Mb", "setting": "[3]", "value": 73}]}, {"compound": "C[C@]12CC[C@@H]3c4ccc(O)cc4CC[C@H]3[C@@H]1CC[C@@H]2O", "note": "[Estradiol]", "values": [{"measurement": "inhibition at 0.001 µg/mL", "setting": "[1]", "value": 20, "unit": "%"}]}, {"compound": "[N-]=[N+]=[N-]", "note": "[Sodium Azide, sodium azide]", "values": [{"measurement": "Level of Interference (in words)", "setting": "[4]", "value": "None"}, {"measurement": "Level of Interference (in words)", "setting": "[4]; listed as sodium azide", "value": "did not interfere"}]}, {"compound": "C=CC1=C(C)/C(=C/c2[nH]c(Cc3[nH]c(/C=C4\\NC(=O)C(C)=C4C=C)c(C)c3CCC(=O)O)c(CCC(=O)O)c2C)NC1=O", "note": "[Bilirubin, bilirubin]", "values": [{"measurement": "Level of Interference (in words)", "setting": "[4]", "value": "None"}, {"measurement": "Level of Interference (in words)", "setting": "[4]; listed as bilirubin", "value": "did not interfere"}, {"measurement": "Interference (in words)", "setting": "[5]", "value": "None"}, {"measurement": "Interference (in words)", "setting": "[5]; listed as bilirubin", "value": "did not affect assay performance"}]}, {"compound": "C[C@]12CC[C@@H]3c4ccc(O)cc4CC[C@H]3[C@@H]1C[C@@H](O)[C@@H]2O", "note": "[Estriol]", "values": [{"measurement": "inhibition at 0.001 µg/mL", "setting": "[1]", "value": 15, "unit": "%"}]}, {"compound": "Cc1c(C)c2c(c(C)c1O)CCC(C)(C(=O)O)O2", "note": "(stereo not shown) [Trolox]", "values": [{"measurement": "Interference (in words)", "setting": "[5]", "value": "None"}, {"measurement": "Interference (in words)", "setting": "[5]; listed as trolox", "value": "did not affect assay performance"}]}, {"compound": "CN(C)CCC=C1c2ccccc2CCc2ccccc21", "note": "[Amitriptylene]", "values": [{"measurement": "inhibition at 100 µg/mL", "setting": "[1]; 100 μg/mL, read-out: % Inhibition of MPO", "value": 75, "unit": "%"}]}, {"compound": "Superoxide dismutase", "values": [{"measurement": "Level of Interference", "setting": "[4]", "value": "> 125", "unit": "µg/mL"}]}, {"compound": "O=c1[nH]c(=O)c2[nH]c(=O)[nH]c2[nH]1", "note": "[Uric Acid, uric acid]", "values": [{"measurement": "Level of Interference (in words)", "setting": "[4]", "value": "None"}, {"measurement": "Level of Interference (in words)", "setting": "[4]; listed as Uric acid", "value": "did not interfere"}, {"measurement": "Interference (in words)", "setting": "[5]", "value": "None"}, {"measurement": "Interference (in words)", "setting": "[5]; listed as uric acid", "value": "did not affect assay performance"}]}, {"compound": "Catalase", "values": [{"measurement": "Level of Interference (in words)", "setting": "[4]", "value": "only interfere at very high concentrations"}, {"measurement": "Level of Interference", "setting": "[4]", "value": "> 7.8", "unit": "µg/mL"}]}, {"compound": "CCCCCCCCCCCCCCCC[N+](C)(C)C.[Cl-]", "note": "[CTAC, cetyltrimethyl-ammonium chloride]", "values": [{"measurement": "enhancement of chemiluminescence signal", "setting": "[6]; 7-DNH, various Hb concentrations", "value": "highest chemiluminescence signal"}, {"measurement": "optimal concentration for enhancement of signal", "setting": "[6]; dose-dependent enhancement, FIG. 4B", "value": 0.1, "unit": "%"}]}]}
